Data taken from patent publication US20250084074A1, “SUBSTITUTED HETEROCYCLES AS HSET INHIBITORS” (MERCK PATENT GMBH, priority 2022, published 2025).

target: HSET full length protein (Homo sapiens (Human), UniProt Q9BW19); assay: HSET ADP-Glo Assay S - 3 μM ATP; format: biochemical; conditions: 5 nM HSET, 70 μg/mL microtubule, 80 min at rt, read-out: COMBINED HSET ADP GLO IC50
In short: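 ADP-Glo luminescence read-out: ATPase reaction at 3 μM ATP, 80 min at room temperature, after a 10 min compound preincubation. Enzyme was full-length human HSET at 5 nM, stimulated by 70 μg/mL paclitaxel-stabilised bovine microtubules in HEPES pH 6.8 buffer with MgCl2, EGTA, Triton X-100 and DTT.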

Chain of HSET full length protein (Q9BW19 whole entry): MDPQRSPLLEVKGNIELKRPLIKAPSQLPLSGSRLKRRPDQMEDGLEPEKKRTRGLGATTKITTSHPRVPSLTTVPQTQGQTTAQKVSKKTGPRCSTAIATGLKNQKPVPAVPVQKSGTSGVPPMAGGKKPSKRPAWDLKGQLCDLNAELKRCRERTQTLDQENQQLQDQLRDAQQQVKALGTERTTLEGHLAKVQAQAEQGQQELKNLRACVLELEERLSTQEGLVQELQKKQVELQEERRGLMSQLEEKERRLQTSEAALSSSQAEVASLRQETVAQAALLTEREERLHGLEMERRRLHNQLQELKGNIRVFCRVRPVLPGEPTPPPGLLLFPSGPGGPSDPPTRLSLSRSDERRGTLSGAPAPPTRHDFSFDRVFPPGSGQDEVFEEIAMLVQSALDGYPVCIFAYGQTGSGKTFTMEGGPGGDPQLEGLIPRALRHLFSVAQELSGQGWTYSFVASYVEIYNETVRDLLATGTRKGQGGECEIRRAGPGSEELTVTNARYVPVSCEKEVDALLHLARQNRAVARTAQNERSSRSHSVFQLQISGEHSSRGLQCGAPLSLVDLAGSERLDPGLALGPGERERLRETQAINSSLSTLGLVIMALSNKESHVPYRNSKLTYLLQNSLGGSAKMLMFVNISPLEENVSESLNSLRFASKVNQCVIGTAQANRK

In order of rising IC50:
1. CNCCC[C@@H](CC(=O)Nc1nc(C)c(C(=O)OC2CCC(F)(F)C2)s1)Nc1nccc2ccc(-c3noc(C)n3)cc12 (stereo partly drawn) [Example 170, 3,3-Difluorocyclopentyl 4-methyl-2-((S)-3-((7-(5-methyl-1,2,4-oxadiazol-3-yl)isoquinolin-1-yl)amino)-6-(methylamino)hexanamido)thiazole-5-carboxylate]  4 nM
2. CNCCC[C@@H](CC(=O)Nc1nc(C)c(C(=O)OC(C)(C)C)s1)NC(=O)c1cccc(-c2noc(C)n2)c1 [Example 154, Tert-butyl 4-methyl-2-[[(3S)-6-(methylamino)-3-[[3-(5-methyl-1,2,4-oxadiazol-3-yl)benzoyl]amino]hexanoyl]amino]thiazole-5-carboxylate]  6 nM
3. CCCOC(=O)c1sc(NC(=O)C[C@H](CCCN(C)C)NC(=O)c2cccc(-c3noc(C)n3)c2)nc1C [Example 158, Propyl (S)-2-(6-(dimethylamino)-3-(3-(5-methyl-1,2,4-oxadiazol-3-yl)benzamido)hexanamido)-4-methylthiazole-5-carboxylate]  11 nM
4. CCOC(=O)c1sc(NC(=O)CCNC(=O)c2cc(Br)cc(C(=O)OC)c2)nc1C [Example 18, Ethyl 2-[3-[(3-bromo-5-methoxycarbonyl-benzoyl)amino]propanoylamino]-4-methyl-thiazole-5-carboxylate]  14 nM
5. CCCOC(=O)c1sc(NC(=O)C[C@H](CCCNC)NC(=O)c2cccc(-c3noc(C)n3)c2)nc1C [Example 152, Propyl 4-methyl-2-[[(3S)-6-(methylamino)-3-[[3-(5-methyl-1,2,4-oxadiazol-3-yl)benzoyl]amino]hexanoyl]amino]thiazole-5-carboxylate]  19 nM
6. Cc1nc(-c2cccc(C(=O)NCCC(=O)Nc3nc(C)c(C(=O)OCC(C)C)s3)c2)no1 [Example 68, Isobutyl 4-methyl-2-(3-(3-(5-methyl-1,2,4-oxadiazol-3-yl)benzamido)propanamido)thiazole-5-carboxylate]  33 nM
7. CCCOC(=O)c1sc(N(C)C(=O)CCNC(=O)c2cccc(-c3noc(C)n3)c2)nc1C [Example 121, Propyl-4-methyl-2-(N-methyl-3-(3-(5-methyl-1,2,4-oxadiazol-3-yl)benzamido)propanamido)thiazole-5-carboxylate]  36 nM
8. Cc1nc(-c2ccc3ccnc(NC4CN(C(=O)Nc5nc(C)c(C(C)(C)C)s5)C4)c3c2)no1 [Example 232, N-(5-(tert-butyl)-4-methylthiazol-2-yl)-3-((7-(5-methyl-1,2,4-oxadiazol-3-yl)isoquinolin-1-yl)amino)azetidine-1-carboxamide]  44 nM
9. Cc1nc(-c2ccc3ncnc(N[C@H]4C[C@@H](C(=O)Nc5nc(C)c(C(=O)OC(C)(C)C)s5)C4)c3c2)no1 [Example 48, tert-Butyl 4-methyl-2-((1 s,3s)-3-((6-(5-methyl-1,2,4-oxadiazol-3-yl)quinazolin-4-yl)amino)cyclobutane-1-carboxamido)thiazole-5-carboxylate]  68 nM
10. Cc1nc(-c2cccc(C(=O)NCCC(=O)Nc3nc(C)c(C(=O)OC(C)C)s3)n2)no1 [Example 278]  71 nM
11. CCCCCc1cc(NC(=O)CCNc2nccc3ccc(-c4noc(C)n4)cc23)nn1C [Example 57, 3-((7-(5-methyl-1,2,4-oxadiazol-3-yl)isoquinolin-1-yl)amino)-N-(1-methyl-5-pentyl-1 H-pyrazol-3-yl)propanamide]  166 nM
12. Cc1nc(-c2cccc(C(=O)N[C@H](CC#N)CC(=O)Nc3nc(C)c(C(=O)OC(C)C)s3)c2)no1 [Example 196, Propan-2-yl 2-[(3R)-4-cyano-3-{[3-(5-methyl-1,2,4-oxadiazol-3-yl)phenyl]form-amido}butanamido]-4-methyl-1,3-thiazole-5-carboxylate]  167 nM
13. CCOC(=O)c1sc(C(=O)NCCNC(=O)c2cccc(-c3noc(C)n3)c2)nc1C [Example 141, Ethyl-4-methyl-2-((2-(3-(5-methyl-1,2,4-oxadiazol-3-yl)benzamido)ethyl)carbamoyl)thiazole-5-carboxylate]  405 nM
14. Cc1nc(NC(=O)C[C@H](CC#N)NC(=O)c2cccc(-c3cnn(C)c3)c2)sc1C(=O)OC(C)(C)C [Example 201]  410 nM
15. CCCOC(=O)c1sc(C(=O)N2CC[C@@H](Nc3nccc4ccc(-c5noc(C)n5)cc34)C2)nc1C [Example 244, Propyl (R)-4-methyl-2-(3-((7-(5-methyl-1,2,4-oxadiazol-3-yl)isoquinolin-1-yl)amino)pyrrolidine-1-carbonyl)thiazole-5-carboxylate]  608 nM
16. Cc1nc(-c2cc(C(=O)NCCC(=O)Nc3nc(C)c(C(=O)OCCCCCCO)s3)cc(C(F)(F)F)c2)no1 [Example 136, 6-Hydroxyhexyl 4-methyl-2-(3-(3-(5-methyl-1,2,4-oxadiazol-3-yl)-5-(trifluoromethyl)benzamido)propanamido)thiazole-5-carboxylate]  737 nM
17. Cc1nc(-c2ccc3ccnc(N[C@H]4C[C@@H](C(=O)Nc5nc(Cl)c(C(=O)NC(C)(C)C)s5)C4)c3c2)no1 [Example 113, N-tert-butyl-4-chloro-2-[[3-[[7-(5-methyl-1,2,4-oxadiazol-3-yl)-1-isoquinolyl]amino]cyclobutanecarbonyl]amino]thiazole-5-carboxamide]  1380 nM
18. Cc1nc(-c2ccc3ccnc(N[C@@H]4CCN(C(=O)Nc5nc(C)c(C(=O)OC(C)(C)C)s5)C4)c3c2)no1 [Example 225, tert-Butyl 4-methyl-2-[[(3R)-3-[[7-(5-methyl-1,2,4-oxadiazol-3-yl)-1-isoquinolyl]amino]pyrrolidine-1-carbonyl]amino]thiazole-5-carboxylate]  1660 nM
19. Cc1nc(NC(=O)C[C@H](CC#N)NC(=O)c2cccc(-c3cnn(C)c3)n2)sc1C(=O)OC(C)C [Example 213, Propan-2-yl 2-[(3S)-4-cyano-3-{[6-(1-methyl-1 H-pyrazol-4-yl)pyridin-2-yl]formamido}butanamido]-4-methyl-1,3-thiazole-5-carboxylate]  1700 nM
20. CCOC(=O)c1cccc(C(=O)NCCC(=O)Nc2nc(C)c(C(=O)OCC)s2)c1 [Example 42, Ethyl 2-(3-(3-(ethoxycarbonyl)benzamido)propanamido)-4-methylthiazole-5-carboxylate]  1790 nM
21. CCOC(=O)n1cc(NC(=O)CCNC(=O)c2cccc(-c3noc(C)n3)c2)nc1C [Example 265]  2250 nM
22. Cc1nc(-c2ccc3ccnc(N[C@H]4CCN(C(=O)c5cc(C(C)(C)C)[nH]n5)C4)c3c2)no1 [Example 254, (S)-(5-(tert-butyl)-1 H-pyrazol-3-yl)(3-((7-(5-methyl-1,2,4-oxadiazol-3-yl)isoquinolin-1-yl)amino)pyrrolidin-1-yl)methanone]  6100 nM
23. COC(=O)c1cc(NC(=O)CCNC(=O)c2cccc(-c3noc(C)n3)c2)nn1C [Example 128, Methyl-2-methyl-5-[3-[[3-(5-methyl-1,2,4-oxadiazol-3-yl)benzoyl]amino]propanoylamino]pyrazole-3-carboxylate]  14100 nM
24. Cc1nc(-c2ccc3ccnc(N[C@H]4CCN(C(=O)c5cc(C(C)C)n(C)n5)C4)c3c2)no1 [Example 249, (S)-(5-isopropyl-1-methyl-1 H-pyrazol-3-yl)(3-((7-(5-methyl-1,2,4-oxadiazol-3-yl)isoquinolin-1-yl)amino)pyrrolidin-1-yl)methanone]  14500 nM
